Reference: BindingDB's records for doi:10.1016/j.ejmech.2020.112529 (Jagiellonian University, 2020)

molecular target: 5-HT2A receptor (Homo sapiens); test: Displacement of [3H]-Ketanserin from human 5-HT2A receptor expressed in CHO-K1 cells incubated for 1 hr by microbeta counting method

Ki | Structure (SMILES)
906 nM | CN1CCN(c2nc(N)nc(CCCOc3ccc(Cl)c(Cl)c3)n2)CC1
839 nM | CCCCC(Oc1cc(Cl)cc(Cl)c1)c1nc(N)nc(N2CCN(C)CC2)n1 (configuration not stated)
1460 nM | CN1CCN(c2nc(N)nc(CCCOc3cc(Cl)ccc3Cl)n2)CC1
1830 nM | CC(Oc1ccccc1Cl)c1nc(N)nc(N2CCN(C)CC2)n1 (configuration not stated)
649 nM | CN1CCN(c2nc(N)nc(CCCOc3cccc(Cl)c3Cl)n2)CC1

Structure (SMILES) | Ki
CC(Oc1cccc(Cl)c1Cl)c1nc(N)nc(N2CCN(C)CC2)n1 (configuration not stated) | 268 nM
CCCCC(Oc1cc(Cl)ccc1Cl)c1nc(N)nc(N2CCN(C)CC2)n1 (configuration not stated) | 431 nM
